What was measured:
Format in all cases: in vivo
[1] = test system: Euschistus heros (Neotropical Brown Stink Bug); assay: Example B2: Euschistus heros (neotropical brown stink bug), soybean leaves sprayed, N2 nymphs; settings: 120 h, application rate 200 ppm, 5 days after infestation, read-out: effect in at least one of the two categories (mortality or growth inhibition)
Experimental: Example B2: Euschistus heros (Neotropical Brown Stink Bug)
Soybean leaves on agar in 24-well microtiter plates were sprayed with aqueous test solutions prepared from 10,000 ppm DMSO stock solutions. After drying the leaves were infested with N2 nymphs. The samples were assessed for mortality and growth inhibition in comparison to untreated samples 5 days after infestation.
The following compounds gave an effect of at least 80% in at least one of the two categories (mortality or growth inhibition) at an application rate of 200 ppm: […]

[2] = test system: Thrips tabaci (Onion Thrips); assay: Example B12: Thrips tabaci (onion thrips), feeding/contact activity; settings: 144 h, application rate 200 ppm, mixed ages, 6 days after infestation
Experimental: Example B12: Thrips tabaci (Onion Thrips) Feeding/Contact Activity
Sunflower leaf discs were placed on agar in 24-well microtiter plates and sprayed with aqueous test solutions prepared from 10,000 ppm DMSO stock solutions. After drying the leaf discs were infested with a thrips population of mixed ages. The samples were assessed for mortality 6 days after infestation.

[3] = test system: Plutella xylostella (Diamond Back Moth); assay: Example B5: Plutella xylostella (diamond back moth), artificial diet, 24-well, eggs; settings: 192 h, application rate 200 ppm, 8 days after infestation, read-out: effect in at least one of the two categories (mortality or growth inhibition)
Outline: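 Artificial diet in 24-well plates treated with aqueous dilutions of 10,000 ppm DMSO stocks, dried, then infested with Plutella eggs. Mortality and growth inhibition scored against untreated samples 8 days after infestation; activity rated at 200 ppm application rate.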

[4] = test system: Plutella xylostella (Diamondback Moth); assay: Example B14: activity against Plutella xylostella (diamondback moth), 96-well artificial diet; settings: 216 h, application rate 500 ppm, 9 days after infestation
Outline: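 Diet in 96-well plates was treated with aqueous dilutions of 10,000 ppm DMSO stocks, dried, and infested with 30 eggs per well via a netted lid; hatching L1 larvae fed on the diet. Mortality scored 9 days after infestation.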

[5] = test system: Myzus persicae (Green Peach Aphid); assay: Example B13: activity against Myzus persicae (green peach aphid), 96-well sucrose solution; settings: 120 h, application rate 50 ppm, 5 days after infestation
Outline: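 Compounds, from 10,000 ppm DMSO stocks, mixed into sucrose solution in wells under stretched Parafilm, with aphids placed on the membrane in an inverted feeding setup. Mortality scored 5 days after infestation.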

[6] = test system: Myzus persicae (Green Peach Aphid); assay: Example B8: Myzus persicae (green peach aphid), intrinsic activity; settings: 120 h, test rate 12 ppm, sucrose solution, 24-well, 5 days after infestation
Excerpt: Example B8: Myzus persicae (Green Peach Aphid), Intrinsic Activity
Test compounds prepared from 10,000 ppm DMSO stock solutions were applied by pipette into 24-well microtiter plates and mixed with sucrose solution. The plates were closed with a stretched Parafilm. A plastic stencil with 24 holes was placed onto the plate and infested pea seedlings were placed directly on the Parafilm. The infested plate was closed with a gel blotting paper and another plastic stencil and then turned upside down. The samples were assessed for mortality 5 days after infestation.

[7] = test system: Diabrotica Balteata (Corn Root Worm); assay: Example B1: Diabrotica balteata (corn root worm), maize sprouts sprayed, L2 larvae; settings: 96 h, application rate 200 ppm, 4 days after infestation, read-out: effect in at least one of the two categories (mortality or growth inhibition)
Outline: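 Maize sprouts on agar sprayed with aqueous dilutions of 10,000 ppm DMSO stocks, dried, then infested with 6–10 L2 larvae per well. Mortality and growth inhibition scored against untreated samples 4 days after infestation; rates of 200 ppm.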

[8] = test system: Spodoptera littoralis (Egyptian Cotton Leaf Worm); assay: Example B9: Spodoptera littoralis (Egyptian cotton leaf worm), cotton leaf discs sprayed, L1 larvae; settings: foliar, 72 h, application rate 200 ppm, 3 days after infestation
Outline: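 Leaf discs on agar sprayed with aqueous dilutions from 10,000 ppm DMSO stock, dried, then infested with five L1 larvae. Mortality, anti-feeding and growth inhibition scored against untreated samples 3 days after infestation; control counted when any category exceeds untreated.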

[9] = test system: Chilo suppressalis (Striped Rice Stemborer); assay: Example B4: Chilo suppressalis (striped rice stemborer), artificial diet, L2 larvae; settings: 144 h, application rate 200 ppm, 6 days after infestation
Experimental: Example B4: Chilo suppressalis (Striped Rice Stemborer)
24-well microtiter plates with artificial diet were treated with aqueous test solutions prepared from 10,000 ppm DMSO stock solutions by pipetting. After drying, the plates were infested with L2 larvae (6-8 per well). The samples were assessed for mortality, anti-feeding effect, and growth inhibition in comparison to untreated samples 6 days after infestation. Control of Chilo suppressalis by a test sample is given when at least one of the categories (i.e. mortality, anti-feedant effect, and growth inhibition) is higher than the untreated sample.

[10] = test system: Spodoptera littoralis (Egyptian Cotton Leaf Worm); assay: Example B10: Spodoptera littoralis (Egyptian cotton leaf worm), uptake by lettuce roots from agar, eggs; settings: 144 h, test rate 12.5 ppm, lettuce root uptake, 6 days after infestation, read-out: effect in at least one of the three categories (mortality, anti-feeding, or growth inhibition)
Excerpt: Example B10: Spodoptera littoralis (Egyptian Cotton Leaf Worm)
Test compounds were applied by pipette from 10,000 ppm DMSO stock solutions into 24-well plates and mixed with agar. Lettuce seeds were placed onto the agar and the multi well plate was closed by another plate which contained also agar. After 7 days the compound was absorbed by the roots and the lettuce grew into the lid plate. The lettuce leaves were then cut off into the lid plate. Spodoptera eggs were pipetted through a plastic stencil onto a humid gel blotting paper and the lid plate was closed with it. The samples were assessed for mortality, anti-feedant effect and growth inhibition in comparison to untreated samples 6 days after infestation.
The following compounds gave an effect of at least 80% in at least one of the three categories (mortality, anti-feeding, or growth inhibition) at a test rate of 12.5 ppm: […]

[11] = test system: Myzus persicae (Green Peach Aphid); assay: Example B6: Myzus persicae (green peach aphid), feeding/contact activity; settings: 144 h, application rate 200 ppm, 6 days after infestation
Experimental: Example B6: Myzus persicae (Green Peach Aphid):Feeding/Contact Activity
Sunflower leaf discs were placed onto agar in a 24-well microtiter plate and sprayed with aqueous test solutions prepared from 10,000 ppm DMSO stock solutions. After drying, the leaf discs were infested with an aphid population of mixed ages. The samples were assessed for mortality 6 days after infestation.

CC(c1ncnn1-c1ncccn1)N(CC1CC1)C(=O)c1cc(Cl)cc(C2(C#N)CC2)n1 (stereo not drawn) [P29, 4-chloro-6-(1-cyanocyclopropyl)-N-(cyclopropylmethyl)-N-[1-(2-pyrimidin-2-yl-1,2,4-triazol-3-yl)ethyl]pyridine-2-carboxamide]
≥ 80%: percent effect (mortality or growth inhibition) at 200 ppm [1] | mortality at 200 ppm [2] | percent effect (mortality or growth inhibition) at 200 ppm [3] | mortality at 500 ppm [4] | mortality at 50 ppm [5] | mortality at 12 ppm [6] | percent effect (mortality or growth inhibition) at 200 ppm [7]

CC(c1ncnn1-c1ncccn1)N(CC1CC1)C(=O)c1cc(C(F)(F)F)cc(S(=O)(=O)C(F)F)c1 (stereo not drawn) [P30, N-(cyclopropylmethyl)-3-(difluoromethylsulfonyl)-N-[1-(2-pyrimidin-2-yl-1,2,4-triazol-3-yl)ethyl]-5-(trifluoromethyl)benzamide]
≥ 80%: percent effect (mortality or growth inhibition) at 200 ppm [1] | mortality at 200 ppm [2] | percent effect (mortality or growth inhibition) at 200 ppm [3] | mortality at 500 ppm [4] | mortality at 50 ppm [5] | mortality at 12 ppm [6] | percent effect (mortality or growth inhibition) at 200 ppm [7]

CC(c1ncnn1-c1ncccn1)N(CC1CC1)C(=O)c1cc(C(F)(F)F)nc(C2(C#N)CC2)c1 (stereo not drawn) [P32, 2-(1-cyanocyclopropyl)-N-(cyclopropylmethyl)-N-[1-(2-pyrimidin-2-yl-1,2,4-triazol-3-yl)ethyl]-6-(trifluoromethyl)pyridine-4-carboxamide]
≥ 80%: percent effect (mortality or growth inhibition) at 200 ppm [1] | percent control (mortality, anti-feedant effect or growth inhibition) at 200 ppm [8] | mortality at 200 ppm [2] | percent effect (mortality or growth inhibition) at 200 ppm [3] | percent control (mortality, anti-feedant effect or growth inhibition) at 200 ppm [9] | mortality at 500 ppm [4] | mortality at 50 ppm [5] | percent effect (mortality, anti-feeding or growth inhibition) at 12.5 ppm [10] | percent effect (mortality or growth inhibition) at 200 ppm [7]

CC(c1ncnn1-c1ncccn1)N(CC1CC1)C(=O)c1cc(C(F)(F)F)cc(C2(C)CC2C(F)(F)F)c1 (stereo not drawn) [P43, N-(cyclopropylmethyl)-3-[1-methyl-2-(trifluoromethyl)cyclopropyl]-N-[1-(2-pyrimidin-2-yl-1,2,4-triazol-3-yl)ethyl]-5-(trifluoromethyl)benzamide]
≥ 80%: percent control (mortality, anti-feedant effect or growth inhibition) at 200 ppm [8] | percent effect (mortality or growth inhibition) at 200 ppm [3] | percent control (mortality, anti-feedant effect or growth inhibition) at 200 ppm [9] | mortality at 500 ppm [4] | mortality at 50 ppm [5] | mortality at 12 ppm [6] | percent effect (mortality, anti-feeding or growth inhibition) at 12.5 ppm [10] | percent effect (mortality or growth inhibition) at 200 ppm [7]

CC(c1ncnn1-c1ncccn1)N(CC1CC1)C(=O)c1cc(C2CC2)cc(C(F)(F)F)c1 (stereo not drawn) [P52, 3-cyclopropyl-N-(cyclopropylmethyl)-N-[1-(2-pyrimidin-2-yl-1,2,4-triazol-3-yl)ethyl]-5-(trifluoromethyl)benzamide]
≥ 80%: percent effect (mortality or growth inhibition) at 200 ppm [1] | percent control (mortality, anti-feedant effect or growth inhibition) at 200 ppm [8] | mortality at 200 ppm [2] | percent effect (mortality or growth inhibition) at 200 ppm [3] | mortality at 500 ppm [4] | mortality at 50 ppm [5] | mortality at 12 ppm [6] | percent effect (mortality or growth inhibition) at 200 ppm [7]

CC(NC(=O)c1cc(C2CC2)nc(C(F)(F)F)c1)c1ncnn1-c1ncccn1 (stereo not drawn) [P54, 2-cyclopropyl-N-[1-(2-pyrimidin-2-yl-1,2,4-triazol-3-yl)ethyl]-6-(trifluoromethyl)pyridine-4-carboxamide]
≥ 80%: percent effect (mortality or growth inhibition) at 200 ppm [1] | percent control (mortality, anti-feedant effect or growth inhibition) at 200 ppm [8] | percent effect (mortality or growth inhibition) at 200 ppm [3] | mortality at 500 ppm [4] | mortality at 50 ppm [5] | mortality at 12 ppm [6] | percent effect (mortality, anti-feeding or growth inhibition) at 12.5 ppm [10] | percent effect (mortality or growth inhibition) at 200 ppm [7]

CC(c1ncnn1-c1ncccn1)N(CC1CC1)C(=O)c1cc(C2CC2)nc(C(F)(F)F)c1 (stereo not drawn) [P55, 2-cyclopropyl-N-(cyclopropylmethyl)-N-[1-(2-pyrimidin-2-yl-1,2,4-triazol-3-yl)ethyl]-6-(trifluoromethyl)pyridine-4-carboxamide]
≥ 80%: percent effect (mortality or growth inhibition) at 200 ppm [1] | percent effect (mortality or growth inhibition) at 200 ppm [3] | mortality at 500 ppm [4] | mortality at 50 ppm [5] | mortality at 12 ppm [6] | percent effect (mortality, anti-feeding or growth inhibition) at 12.5 ppm [10] | percent effect (mortality or growth inhibition) at 200 ppm [7]

CC(c1ncnn1-c1ncccn1)N(C)C(=O)c1cc(C(F)(F)F)cc(C(F)(F)C2CC2)c1 (stereo not drawn) [P58, 3-[cyclopropyl(difluoro)methyl]-N-methyl-N-[1-(2-pyrimidin-2-yl-1,2,4-triazol-3-yl)ethyl]-5-(trifluoromethyl)benzamide]
≥ 80%: percent effect (mortality or growth inhibition) at 200 ppm [1] | percent control (mortality, anti-feedant effect or growth inhibition) at 200 ppm [8] | percent effect (mortality or growth inhibition) at 200 ppm [3] | percent control (mortality, anti-feedant effect or growth inhibition) at 200 ppm [9] | mortality at 500 ppm [4] | mortality at 50 ppm [5] | mortality at 12 ppm [6] | percent effect (mortality, anti-feeding or growth inhibition) at 12.5 ppm [10] | percent effect (mortality or growth inhibition) at 200 ppm [7]

CC(NC(=O)c1cc(C(F)(F)F)cc(C(F)(F)C2CC2)c1)c1ncnn1-c1ncccn1 (stereo not drawn) [P59, 3-[cyclopropyl(difluoro)methyl]-N-[1-(2-pyrimidin-2-yl-1,2,4-triazol-3-yl)ethyl]-5-(trifluoromethyl)benzamide]
≥ 80%: percent effect (mortality or growth inhibition) at 200 ppm [1] | percent control (mortality, anti-feedant effect or growth inhibition) at 200 ppm [8] | percent effect (mortality or growth inhibition) at 200 ppm [3] | percent control (mortality, anti-feedant effect or growth inhibition) at 200 ppm [9] | mortality at 500 ppm [4] | mortality at 50 ppm [5] | mortality at 12 ppm [6] | percent effect (mortality, anti-feeding or growth inhibition) at 12.5 ppm [10] | percent effect (mortality or growth inhibition) at 200 ppm [7]

CC(NC(=O)c1cc(C2CC2(F)F)cc(C(F)(F)F)c1)c1ncnn1-c1ncccn1 (stereo not drawn) [P87, 3-(2,2-difluorocyclopropyl)-N-[1-(2-pyrimidin-2-yl-1,2,4-triazol-3-yl)ethyl]-5-(trifluoromethyl)benzamide]
≥ 80%: mortality at 200 ppm [11] | percent effect (mortality or growth inhibition) at 200 ppm [1] | percent control (mortality, anti-feedant effect or growth inhibition) at 200 ppm [8] | percent effect (mortality or growth inhibition) at 200 ppm [3] | percent control (mortality, anti-feedant effect or growth inhibition) at 200 ppm [9] | mortality at 50 ppm [5] | mortality at 12 ppm [6] | percent effect (mortality, anti-feeding or growth inhibition) at 12.5 ppm [10] | percent effect (mortality or growth inhibition) at 200 ppm [7]

— patent US20210267203A1, “PESTICIDALLY ACTIVE AZOLE-AMIDE COMPOUNDS” (SYNGENTA PARTICIPATIONS AG, priority 2018, published 2021)
